Laboratory results as given in patent US11898114B2, “Reactions and methods for producing fuels” (Alliance for Sustainable Energy, LLC, priority 2020, dated 2024).
Like-named read-outs stand apart in the source and are kept apart here. Marks after values point to notes of the source that are not given here.

What was measured:
[1] = literature values (Fioroni, et al.; Lautenschütz, et al.); cited from earlier work
[2] = literature values (Fioroni, et al.; Lautenschütz, et al.); cited from earlier work; remark: listed apart in the source
[3] = Boiling point range (TGA-based simulated distillation); type: physicochemical; conditions: neat
Experimental: (§1) Boiling point range of the target product was determined by a thermogravimetric analysis (TGA) based simulated distillation. Distillation temperatures were not determined via the standard method for diesel fuel, ASTM D86, due to the limited volume of sample available and gas chromatography based simulated distillation was not utilized given the relatively polar nature of POMEs. Analysis was conducted using a CAHN TG-131 TGA under flowing nitrogen with a ramp rate of 50° C./min from 25 to 550° C. The sample size was ca. 250 mg. The distillation parameters were selected to generate curves that closely matched ASTM D86 distillation values. The results of this method were validated using a standard fuel oil designed for validating ASTM D86 (Accustandard). Cloud point was measured using a Phase Technology Series 70X according to ASTM D5773; the method uncertainty is typically ±2.5° C. Flash point was measured according to ASTM D7094-17a with a method reproducibility stated as ±5.5° C. Indicated cetane number (ICN) was measured using an Advanced Fuel Ignition Delay Analyzer (AFIDA) instrument according to ASTM D8183-18 and where reproducibility is calculated as ±0.006407(ICN)^1.47. Higher heating value (HHV) and lower heating value (LHV) were determined according to ASTM D240-19 with a method reproducibility of ±0.4 MJ/kg.

[4] = Water solubility (extraction into water, TOC and GC-MS-FID); type: physicochemical; conditions: component of B*POME1-6 extracted into water, 1:5 water:B*POME1-6
Experimental: The aqueous layer was then analyzed by total organic carbon (TOC) to determine the amount of the fuel product that was extracted into water. […] The concentration of each component was approximated from the FID response to estimate both the total amount of fuel product and relative solubility of individual components. […] Aqueous phases were diluted 1:2 with methanol. An Agilent 8890 GC/FID—5977B MS system was used for analysis. A volume of 1.0 μL was injected into a split/splitless inlet set to 275° C. and a split ratio of 1:100. Compounds were separated using an Rtx-50 column (50% phenyl polydimethylsiloxane, Restek) of dimensions 30 m×0.25 mm×0.25 μm with a helium carrier gas at a flow rate of 1.0 mL/min. A post column splitter was used to divert column effluent simultaneously to FID and MS detectors for qualitative and quantitative analysis. The GC oven temperature was held at 40° C. for 2 minutes, then ramped to 140° C. at 7° C./min, followed by a ramp to 290° C. at 12° C./min and held for 10 minutes. The MS transfer line and FID temperatures were set to 350° C. The MS detector was operated in continuous scan mode from m/z 29 to 300. The FID response was calibrated using a standard of 2,5-dimethylfuran prepared gravimetrically in acetone.

[5] = Flash point (ASTM D7094-17a neat; D6450-16a blends); type: physicochemical; conditions: measured
Experimental: as §1, with “The results of this method were validated using a standard fuel oil designed for validating ASTM D86 (Accustandard).” left out
(§2) Higher heating value (HHV) and lower heating value (LHV) were determined according to ASTM D240-19 with a method reproducibility of ±0.4 MJ/kg. […] Lubricity was measured using ASTM D6079-18. […]

[6] = literature values (Fioroni, et al.; Lautenschütz, et al.; reported); cited from earlier work
[7] = Lower heating value (ASTM D240-19); type: physicochemical; conditions: neat, measured
Experimental: as §1, with “The results of this method were validated using a standard fuel oil designed for validating ASTM D86 (Accustandard).” left out
as §2

Structure (SMILES) | Aqueous layer concentration of component [4] [g/L] | LHV [6] | other results
CCCCOCOCCCC [BB-POME1, dibutoxymethane] | 0.2 |  | Flash point [1]: 62^$ °C; Boiling point [2]: 187^$ °C; Boiling point / boiling range [3]: 179 °C; Flash point [5]: 62 °C
CCCCOCOCOCCCC [BB-POME2] | 0.1 |  | 
CCOCOCC [EE-POME1] |  | 29^# MJ/kg | 
CCOCOCOCC [EE-POME2] |  | 26^# MJ/kg | 
CCOCOCOCOCC [EE-POME3] |  | 24^# MJ/kg | LHV [7]: 24 mJ/kg; Boiling point / boiling range [3]: 185 °C; Flash point [5]: 68 °C
CCOCOCOCOCOCC [EE-POME4] |  | 23^# MJ/kg | 
CCCCOCOCOC [MB-POME2] | 2.4 |  | 
CCCCOCOCOCOC [MB-POME3] | 1.1 |  | 
CCCCOCOCOCOCOC [MB-POME4] | 0.4 |  | 
CCCCOCOCOCOCOCOC [MB-POME5] | 0.1 |  | 
COCOC [MM-POME1, methylal] |  | 23^# MJ/kg | 
COCOCOC [MM-POME2] | 0.6 |  | 
COCOCOCOC [MM-POME3] |  |  | Flash point [1]: 54^# °C; Boiling point [2]: 156^# °C
COCOCOCOCOC [MM-POME4] | 1.5 |  | Flash point [1]: 88^# °C; Boiling point [2]: 202^# °C
COCOCOCOCOCOC [MM-POME5] | 1.1 | 19^# MJ/kg | Flash point [1]: 115^# °C; Boiling point [2]: 242^# °C
COCOCOCOCOCOCOC [MM-POME6] | 0.5 |  | 
CCO [ethanol] |  | 26.8 mJ/kg | 
